Patent US8318759B2, “Pyrrolidine derivatives as NK3 receptor antagonists” (Hoffmann-La Roche Inc., priority 2009, dated 2012)

molecular target: T1, human NK3 receptor (Homo sapiens, UniProt P29371); assay: [3H]SR142801 competition binding assay; conditions: membrane from HEK293 cells transiently expressing recombinant human NK3 receptor; radioligand [3H]SR142801; Ki from IC50 by Cheng-Prussoff equation
T1 construct: expressed in transfected cells; host or cells: HEK293 cells (transient expression), membranes
T1 sequence (P29371 1-465): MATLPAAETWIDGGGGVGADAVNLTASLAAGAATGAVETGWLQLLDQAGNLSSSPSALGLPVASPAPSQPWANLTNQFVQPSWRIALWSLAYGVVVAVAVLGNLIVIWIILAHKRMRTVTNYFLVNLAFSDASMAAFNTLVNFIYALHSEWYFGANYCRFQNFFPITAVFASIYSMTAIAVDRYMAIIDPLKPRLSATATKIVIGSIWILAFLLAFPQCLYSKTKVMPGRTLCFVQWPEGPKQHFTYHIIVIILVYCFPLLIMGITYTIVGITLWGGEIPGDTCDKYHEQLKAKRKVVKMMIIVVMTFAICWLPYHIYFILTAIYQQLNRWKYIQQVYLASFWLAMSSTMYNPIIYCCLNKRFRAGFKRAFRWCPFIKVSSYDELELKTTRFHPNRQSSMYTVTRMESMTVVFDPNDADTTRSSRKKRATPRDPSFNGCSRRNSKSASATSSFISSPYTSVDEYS
Procedure: [^3H]SR142801 Competition Binding Assay
hNK3 receptor binding experiment were performed using [^3H]SR142801 (Catalog No. TRK1035, specific activity: 74.0 Ci/mmol, Amersham, GE Healthcare UK limited, Buckinghamshire, UK) and membrane isolated from HEK293 cells transiently expressing recombinant human NK3 receptor. After thawing, the membrane homogenates were centrifuged at 48,000×g for 10 min at 4° C., the pellets were resuspended in the 50 mM Tris-HCl, 4 mM MnCl2, 1 μM phosphoramidon, 0.1% BSA binding buffer at pH 7.4 to a final assay concentration of 5 μg protein/well. […] At the end of the incubation, membranes were filtered onto unitfilter (96-well white microplate with bonded GF/C filter preincubated 1 h in 0.3% PEI+0.3% BSA, Packard BioScience, Meriden, Conn.) with a Filtermate 196 harvester (Packard BioScience) and washed 4 times with ice-cold 50 mM Tris-HCl, pH 7.4 buffer. Nonspecific binding was measured in the presence of 10 μM SB222200 for both radioligands. The radioactivity on the filter was counted (5 min) on a Packard Top-count microplate scintillation counter with quenching correction after addition of 45 μl of microscint 40 (Canberra Packard S. A., Zürich, Switzerland) and shaking for 1 h. Inhibition curves were fitted according to the Hill equation: y=100/(1+(x/IC50)^nH), where nH=slope factor using Excel-fit 4 software (Microsoft). IC50 values were derived from the inhibition curve and the affinity constant (Ki) values were calculated using the Cheng-Prussoff equation Ki=IC50/(1+[L]/KD) where [L] is the concentration of radioligand and KD is its dissociation constant at the receptor, derived from the saturation isotherm. All experiments were performed in duplicate and the mean±standard error (SEM) of the individual Ki values was calculated.

Going from `CS(=O)(=O)N1CCN(C(=O)N2C[C@H](CNc3ccc(C(F)(F)F)cn3)[C@@H](c3ccc(Cl)c(Cl)c3)C2)CC1` [Example 13, (3S,4S)-{3-(3,4-Dichloro-phenyl)-4-[(5-trifluoromethyl-pyridin-2-ylamino)-methyl]-pyrrolidin-1-yl}-(4-methanesulfonyl-piperazin-1-yl)-methanone] to `CS(=O)(=O)N1CCN(C(=O)N2C[C@@H](CNc3ccc(C(F)(F)F)cn3)[C@H](c3ccc(Cl)c(Cl)c3)C2)CC1` [Example 14, (3R,4R)-{3-(3,4-Dichloro-phenyl)-4-[(5-trifluoromethyl-pyridin-2-ylamino)-methyl]-pyrrolidin-1-yl}-(4-methanesulfonyl-piperazin-1-yl)-methanone], the Ki rises from 6.6 nM to 92.4 nM (14-fold).

First: CN(C[C@H]1CN(C(=O)C2CCN(C(=O)C3(C)CC3)CC2)C[C@@H]1c1ccc(Cl)cc1)c1ccc(C#N)cn1 [Example 51, 6-({(3S,4S)-4-(4-Chloro-phenyl)-1-[1-(1-methyl-cyclopropanecarbonyl)-piperidine-4-carbonyl]-pyrrolidin-3-ylmethyl}-methyl-amino)-nicotinonitrile]
Second: CN(C[C@H]1CN(C(=O)C2CCN(C(=O)C3(C)CC3)CC2)C[C@@H]1c1ccc(Cl)c(Cl)c1)c1ccc(C#N)cn1 [Example 64, 6-({(3S,4S)-4-(3,4-Dichloro-phenyl)-1-[1-(1-methyl-cyclopropanecarbonyl)-piperidine-4-carbonyl]-pyrrolidin-3-ylmethyl}-methyl-amino)-nicotinonitrile]
The Ki of the first is 2.2-fold higher: 69.9 nM for the first, 31.8 nM for the second. The second binds more tightly here.

Going from `CN(C[C@H]1CN(C(=O)C2CCN(C(=O)C3(C)CC3)CC2)C[C@@H]1c1ccc(Cl)cc1)c1ccc(C(F)(F)F)cn1` [Example 53, [4-((3S,4S)-3-(4-Chloro-phenyl)-4-{[methyl-(5-trifluoromethyl-pyridin-2-yl)-amino]-methyl}-pyrrolidine-1-carbonyl)-piperidin-1-yl]-(1-methyl-cyclopropyl)-methanone] to `CN(C[C@H]1CN(C(=O)C2CCN(C(=O)C3(C)CC3)CC2)C[C@@H]1c1ccc(Cl)c(Cl)c1)c1ccc(C(F)(F)F)cn1` [Example 62, [4-((3S,4S)-3-(3,4-Dichloro-phenyl)-4-{[methyl-(5-trifluoromethyl-pyridin-2-yl)-amino]-methyl}-pyrrolidine-1-carbonyl)-piperidin-1-yl]-(1-methyl-cyclopropyl)-methanone], the Ki falls from 85.6 nM to 8.4 nM (10-fold). The second binds more tightly here.

Going from `CN(C[C@H]1CN(C(=O)C2CCN(C(=O)C3(C)CC3)CC2)C[C@@H]1c1ccc(Cl)cc1)c1ncc(C(F)(F)F)cn1` [Example 55, ((3S,4S)-3-(4-Chloro-phenyl)-4-{[methyl-(5-trifluoromethyl-pyrimidin-2-yl)-amino]-methyl}-pyrrolidin-1-yl)-[1-(1-methyl-cyclopropanecarbonyl)-piperidin-4-yl]-methanone] to `CN(C[C@H]1CN(C(=O)C2CCN(C(=O)C3(C)CC3)CC2)C[C@@H]1c1ccc(Cl)c(Cl)c1)c1ncc(C(F)(F)F)cn1` [Example 59, ((3S,4S)-3-(3,4-Dichloro-phenyl)-4-{[methyl-(5-trifluoromethyl-pyrimidin-2-yl)-amino]-methyl}-pyrrolidin-1-yl)-[1-(1-methyl-cyclopropanecarbonyl)-piperidin-4-yl]-methanone], the Ki falls from 42.9 nM to 2.3 nM (19-fold). The second binds more tightly here.

First: CC1(C(=O)N2CCC(C(=O)N3C[C@H](CNc4ncc(C(F)(F)F)cn4)[C@@H](c4ccc(Cl)c(Cl)c4)C3)CC2)CC1 [Example 57, {(3S,4S)-3-(3,4-Dichloro-phenyl)-4-[(5-trifluoromethyl-pyrimidin-2-ylamino)-methyl]-pyrrolidin-1-yl}-[1-(1-methyl-cyclopropanecarbonyl)-piperidin-4-yl]-methanone]
Second: CN(C[C@H]1CN(C(=O)C2CCN(C(=O)C3(C)CC3)CC2)C[C@@H]1c1ccc(Cl)c(Cl)c1)c1ccc(Cl)cn1 [Example 66, {4-[(3S,4S)-3-{[(5-Chloro-pyridin-2-yl)-methyl-amino]-methyl}-4-(3,4-dichloro-phenyl)-pyrrolidine-1-carbonyl]-piperidin-1-yl}-(1-methyl-cyclopropyl)-methanone]
The Ki of the first is 26-fold lower: 1.8 nM for the first, 47 nM for the second. The first binds more tightly here.

First: Cc1cc(C(=O)N2C[C@H](CNc3ncc(C(F)(F)F)cn3)[C@@H](c3ccc(Cl)c(Cl)c3)C2)cnn1 [Example 58, {(3S,4S)-3-(3,4-Dichloro-phenyl)-4-[(5-trifluoromethyl-pyrimidin-2-ylamino)-methyl]-pyrrolidin-1-yl}-(6-methyl-pyridazin-4-yl)-methanone]
Second: Cc1cc(C(=O)N2C[C@H](CN(C)c3ncc(C(F)(F)F)cn3)[C@@H](c3ccc(Cl)c(Cl)c3)C2)cnn1 [Example 60, ((3S,4S)-3-(3,4-Dichloro-phenyl)-4-{[methyl-(5-trifluoromethyl-pyrimidin-2-yl)-amino]-methyl}-pyrrolidin-1-yl)-(6-methyl-pyridazin-4-yl)-methanone]
The Ki of the first is 13-fold lower: 1.2 nM for the first, 15.8 nM for the second. The first binds more tightly here.

system: not given; assay: not given; conditions: phase II trial; altered behavior, delusion, hallucinations, extreme emotions, excited motor activity, incoherent speech; cited from earlier work

For `CC(=O)N(C)C1(c2ccccc2)CCN(CCC[C@]2(c3ccc(Cl)c(Cl)c3)CCCN(C(=O)c3ccccc3)C2)CC1` [SR 142,801, Osanetant], the “activity on positive symptoms of schizophrenia” value is listed as “active”.

same assay, conditions: phase II trial; depression, anhedonia, social isolation, memory and attention deficits; cited from earlier work

In the case of `CC(=O)N(C)C1(c2ccccc2)CCN(CCC[C@]2(c3ccc(Cl)c(Cl)c3)CCCN(C(=O)c3ccccc3)C2)CC1` [SR 142,801, Osanetant], the “activity in the treatment of negative symptoms of schizophrenia” value is listed as “inactive”.
